Laboratory results published in EP0497921B1, “METHOD FOR INHIBITING ENZYMATIC SYNTHESIS OF NUCLEIC ACIDS USING ISOPSORALENS” (ISAACS, Stephen T., priority 1989, dated 1991).

How the values were obtained:
Type in all cases: biochemical
HIV 115-mer = assay: PCR sterilization with pre-irradiated compound (photoproduct) added to PCR product
Method: AMDMIP photoproduct was made by irradiating AMDMIP (using the CE-III device) in 1 x Taq buffer (50 mM KCL, 2.5 mM MgCl2, 10 mM Tris, pH 8.5, 200 µg/ml gelatin) in a separate vessel for 15 minutes at room temperature (RT). Aliquots of AMDMIP photoproduct and the unirradiated compound were added (by pipetting) at 50, 100, 200 and 300 µg/ml to 1 µl aliquots of a 10^6 dilution of PCR product copies. PCR product was provided by a) preparing template, b) providing template, c) providing PCR reagents, d) providing polymerase, e) mixing PCR reagents, template, and polymerase to initiate PCR, f) cycling to synthesize PCR product. Step a): Template Preparation. The templates were derived from actual patient samples. Ficoll-Hypaque separated peripheral blood mononuclear cells (PBMCs) are prepared from individuals enrolled in a longitudinal AIDS study. Approximately 1 X 10^6 cells are added to 10 ml of RPMI containing 10% fetal calf serum. The cells are pelleted by centrifugation at 200 x g for 5 minutes and washed twice with 10 ml PBS. […]
Again, to evaluate the efficacy of this method of sterilization, a subsequent polymerase chain reaction was carried out for 30 cycles in the presence of α-^32P-dCTP. PCR product was then quantitated by running gels (see above), cutting the bands (detected by autoradiography) and counting the bands on a commercial scintillation counter. […]

[1] = tested on: Molt-4 human genomic DNA target; assay: Sterilization of genomic target before PCR (174 bp beta globin product)
Method: Four samples containing 1 µg of Molt-4 human genomic DNA target were prepared for PCR with primers KM 29 (5'-[…]) and HRI-12 (5'-[…]). These primers give a 174 bp product within the human beta globin gene. All four samples contained AMDMIP at 100 µg/ml, and were irradiated for 0, 5, 10 or 15 minutes prior to PCR amplification. […] Amplification were carried out in 1 x Taq buffer (50 mM KCl, 10 mM Tris pH 8.5, 2.5 mM MgCl2, 200 µg/ml gelatin), 175 µM each dNTP, 20 µM primer with 2.5 units of Taq polymerase and 100 µg/ml AMDMIP present during amplification. PCR was carried out for 30 cycles; one cycle = 30 sec at 94°C (denaturing), 30 sec at 55°C (primer annealing), and 60 sec at 72°C (extension). α-^32P-dCTP was used as an internal label. After amplification, the samples were analyzed for product by PAGE followed by autoradiaography.

human placental DNA = assay: PCR amplification with unirradiated AMDMIP and DMSO co-solvent; conditions: for CPM of product bands: AMDMIP 200 µg/ml unirradiated
Method: In this example, the effect of DMSO on PCR amplification in the presence of high concentrations of sterilizing compound (AMDMIP) was investigated. Samples were prepared for PCR which contained 1 µg of human placental DNA either with or without (unirradiated) AMDMIP (200 µg/ml). The samples were amplified 30 cycles under standard PCR conditions in the presence of 0%, 1%, 5% or 10% DMSO. The reaction mix contained α-^32P-dCTP. Following amplification, the samples were analyzed by PAGE (data not shown).

Substance: 4'-Aminomethyl-4,5'-dimethylisopsoralen [AMDMIP]
- sterilization of PCR (30 cycles, autoradiography) (HIV 115-mer; unirradiated AMDMIP at the same concentration as the photoproduct): PCR product is clearly evident
- sterilization of PCR (30 cycles, autoradiography) (HIV 115-mer; unirradiated compound at 50, 100, 200 and 300 µg/ml): no sterilization
- impact of unirradiated AMDMIP on amplification ([1]; 100 µg/ml, data not shown): no significant impact on amplification
- amplification after irradiation in the presence of AMDMIP ([1]; AMDMIP 100 µg/ml, irradiated 0, 5, 10 or 15 minutes prior to PCR, 30 cycles): no amplification of the sterilized genomic target
- amplification with unirradiated AMDMIP (human placental DNA; 200 µg/ml, no DMSO, 30 cycles): virtually no detectable amplification product
- CPM of product bands (human placental DNA; 0% DMSO): 2500 CPM
- CPM of product bands (human placental DNA; 1% DMSO): 2800 CPM
- CPM of product bands (human placental DNA; 5% DMSO): 86,000 CPM
- CPM of product bands (human placental DNA; 10% DMSO): 102,000 CPM
